The source of these data is patent US10064890B2, “Amorphous calcium carbonate for the treatment of calcium malabsorption and metabolic bone disorders” (AMORPHICAL LTD, priority 2011, dated 2018).

Counter-ions that a name gives are not always drawn. Marks after values point to notes of the source that are not given here.

In series [1] the test system is ovariectomized (OVX) rat model. Nature of the series: Trial 6: micro-CT of distal femur and 4th lumbar vertebra, ACC with or without alendronate. Type of series: in vivo, Sprague Dawley rats. Particulars: for SMI / TBPf / Tb. N / Tb. Sp / Tb. Th: OVX rats, 4 months treatment. As to the method:
The inventors have conducted a study aiming to evaluate the effects of Amorphous Calcium Carbonate (ACC) on bone mineral density and bone fraction in metabolic bone disorders, and specifically osteoporosis as presented in the ovariectomized (OVX) rat model wherein the ACC is administered in combination with a standard medication for osteoporosis. In the present trial, five groups of rats were tested (4 OVX and 1 sham). Following operation, all rats were left untreated (fed with standard laboratory diet) to develop osteopenia for a period of 2 months. […] In addition, the animals were i.v injected (3 times/week) with either saline or 2 μg/kg alendronate (ALN) according to their group assignment, as described in Table 16.
A CCC mix containing 1% elemental calcium from crystalline calcium carbonate (Socal® Precipitated Calcium Carbonate), and an ACC mix containing 1% elemental calcium from stable amorphous calcium carbonate (containing 1% phosphoserine and 2% Citrate; Amorphical Ltd., Beer-Sheva, Israel).
Following 2 months, rats started treatment according to their assignment as described in Table 16 for a period of 4 months. […] Food consumption and body weight were recorded weekly (Table 17). At the end of the treatment period, all rats were sacrificed by CO2.

Series [2] is described as follows: Trial 1: calcium retention (intake minus feces and urine excretion). Type of series: in vivo, Wistar rats. The settings on record: 34 h feces and urine collection, rats. The protocol:
(§1) Twenty-six 2 month-old male Wistar rats, weighing 240±15 g, were orally administered with a single gelatin capsule containing either ACC (amorphous calcium carbonate) or CCC (crystalline calcium carbonate) intrinsically labeled with ^45Ca, followed by measurements of calcium fractional absorption in serum and calcium excretion.
Feces and urine were collected during the 17 h starvation phase during the acclimation period (baseline) and during the entire 34 h of the experiment to evaluate calcium. Samples of urine (500 μL) were transferred into plastic vials filled with scintillation liquid. Feces were dried overnight at 70° C. in an oven. The samples were ground in a mortar until fine homogenization. Feces samples (200 mg) were placed into 5 ml of 1 N NaOH solution (Gadot, Netanya, Israel), incubated for 3 hours at 80° C. and centrifuged for 10 minutes at 3,600 g. Duplicate samples of the supernatant (30 μL) were transferred into plastic vials containing scintillation liquid. Radioactivity of the urine and feces samples was measured using a liquid scintillation counter. Retention values were calculated by subtracting the radioactivity measured in the feces and urine from the given dose […].

A short description of series [3]: Trial 1: serum calcium pharmacokinetics after single oral capsule of 45Ca-labeled calcium carbonate. More on the design: species or system Wistar rats. Particulars: rat, in vivo. The protocol:
as §1
All animals were treated according to the Israel Animal Welfare Act under the supervision of the Ben-Gurion University Animal Care and Use program. Fifty-one two month-old male Wistar rats (Harlan-Teklad, Jerusalem, Israel), weighing 240±15 g, were randomly housed in 12 stainless steel cages in an environmentally-controlled room (23° C. temperature, 12:12 h light:dark cycle). The rats were fed laboratory rat chow pellets adequate in nutrients ad libitum (Koffolk, Petah-Tikva, Israel) and had free access to water for 48 h. Four days before the beginning of the experiment, the regular diet was replaced with a low calcium diet containing 0.24±0.05% calcium (0.675±0.05% phosphate), specially prepared by mixing two food types containing, respectively, 0.01% calcium (0.3% phosphate; Harlan-Teklad) and 1% calcium (0.8% phosphate; Koffolk). The two food types were separately ground in a mill to yield two powders which were dry mixed in a ratio of 4:1, respectively, until fine homogenization. The homogenized powder was extruded to form new food pellets.
Seventeen hours prior to capsule administration, the rats were weighed and blood samples were taken (baseline). The rats were then placed into individual metabolic cages and deprived of food and water until 3 h post-capsule administration. Three and 24 h post-dosing, ˜10 g of low calcium food pellets (0.01% calcium; Harlan-Teklad) were given to each rat. Distilled water was allowed ad libitum starting three h post-capsule administration.
Each rat was lightly sedated for 30 seconds with isoflurane (Minrad) diluted 1:4 (v:v) with propylene glycol (BioLab). A single capsule containing a specific calcium carbonate preparation (i.e. CCC, ACC, or ACC-C; n=17 for each group) was administered intragastrically to each of the experimental rats using a stainless steel rat administration syringe (Harvard Apparatus).
Blood samples of […] were taken from each rat's tail vein 17 h prior to capsule administration (time 0) and 2, 3, 6, 10, 24 and 34 h post-administration. The blood samples were immediately centrifuged for 10 minutes at 3000 g using a tabletop centrifuge (Hettich Zentrifugen, Bach, Switzerland). Duplicate samples (30 μl) of the supernatant serum were transferred into plastic vials containing scintillation liquid (Zinsser Analytic, Berkshire, UK) and radioactivity was measured using a liquid scintillation counter (Tri-Carb 2100TR, PerkinElmer, Boston, Mass.). Plasma radioactivity from the given dose were normalized according to the measured radioactivity and specific radioactive dose that each rat received [(serum cpm×100)/(total cpm×sample volume)].
Non-compartmental analysis of an individual rat's calcium concentration versus time data was performed using WinNonLin 5.2 software (Pharsight, Mountain View, Calif.).

For series [4], the system named is ovariectomized (OVX) rat model. The series is described as follows: Trial 7: micro-CT of distal femur and 4th lumbar vertebra. The settings on record: for Tb. N / Tb. Sp / Tb. Th: OVX rats, 90 days; for DA: sham group lower than the OVX group by / SMI: sham group lower than the OVX group by / TBPf: sham group lower than the OVX group by: 4th-lumbar vertebra, difference from sham; for trabecular bone region in μCT three-dimensional reconstruction: distal femur and 4th vertebra, FIG. 7, in comparison to the Sham; for trabecular femoral BMD: Sham group higher compared to the OVX group by: femur, difference from Sham.
Description: In the study, five groups of rats were tested (4 ovariectomized and 1 sham). The OVX animals were fed with special food mixtures in the form of pellets from four different calcium sources: commercial crystalline calcium carbonate served as control (mix A), natural ACC (Gastrolith powder) (mix B), synthetic ACC (comprising trace amounts of phospho-serine) (mix C), and commercial crystalline calcium citrate (mix D). Sham group was administrated with the same food as the control. Pellets from all four mixtures contained ˜0.5% elemental calcium as confirmed by atomic absorption apparatus (Varian AA240, Palo Alto, Calif., USA) and described in Table 19 with no added vitamin D, except for the amounts found in the original food pellets (22 IU vitamin D/g).
For the administration of the different calcium sources, special food pellets containing were prepared. Low calcium rodent pellets containing 0.02% calcium (Rat chow #TD95027 Harlan Inc., Jerusalem, Israel) was finely grounded and separately mixed with four different calcium sources. […] Every mix was separately pelleted and kept in a sealed bag at room temperature.
Rats were randomly assigned and operated according to their assigned five groups: Sham (sham-Ovariectomized) fed with mix A, and four other groups were ovariectomized (OVX) using a bilateral dorsal approach according to Lasota and Danowska-Klonowska (2004) Rocz Akad Med Bialymst 49 Suppl 1:129-131, and divided to OVX Control (fed with mix A), OVX Gast (fed with mix B), OVX ACC (fed with mix C) and OVX Citrate (fed with mix D). Following operation, rats were provided a 7 days recovery period under the same conditions as the acclimation period, standard laboratory diet ad-libitum and de-ionized water containing 1.5 ml/400 ml Dipyrone (Vitamed Ltd, Binyamina, Israel), and 1 mg/kg Enrofloxacin (Buyer Ltd. Leverkusen, Germany).
At the end of the recovery period the rats were group-housed in 47 cages (2 rats/cage) according to the group assignment, under the same controlled room conditions as described above. The assigned supplemental pellets and de-ionized water were provided ad-libitum during the entire treatment period (90 days). […] For dynamic histomorphometric analysis fluorochrom dye Calcein (20 mg/kg body mass; Sigma-Aldrich, Israel) was IP injected to all rats at days 76 and 86. On day 90, rats were individually housed in metabolic cages and deprived from food and water for 18 h. Urine was collected from each metabolic funnel and was stored at −80° C. for future analysis of bone resorption biochemical marker at end of the experiment (Time 90). Immediately after urine sampling, serum samples were extracted for evaluation of formation biochemical marker of day 90 and stored in the same manner as described at day 0. All rats were sacrificed by CO2. Right femurs and 4th lumbar vertebras were dissected, wrapped with gaze pads soaked with saline buffer and kept in −80° C. for measurement of bone micro-CT scan. The 5th lumbar vertebras were stored in the same conditions as the right femurs for mechanical testing. Right tibias were dissected and placed immediately for 24 h at 4° C. in 3.7% formaldehyde solution (F1636, Sigma-Aldrich, Israel) for structural and dynamic histomorphometric measurements.
Trabecular and cortical bone microarchitecture of right femurs and 4th lumbar vertebras were analyzed using a μCT scanner (Skyscan 1174, Kartuizersweg Kontich, Belgium).

Series [5] concerns ovariectomized (OVX) rat model. The series is described as follows: Trial 7: mechanical strength of the 5th lumbar vertebra (compression test). Format: in vivo, Sprague Dawley rats. As to the method: (§2) All rats were sacrificed by CO2.
Mechanical properties (Ultimate force, Energy to ultimate force, Toughness and Energy to yield) were obtained from the compression tests of 5th lumbar vertebral body (L5). Calculation of the material properties were performed by measuring the height of the vertebral body and the average of caudal and cranial diameters using a caliper. Cross sectional area (CSA) and bone volume (BV) were obtained by μCT scanning that covered the entire bone including both trabecular and cortical shell.

For series [6], the system named is ovariectomized (OVX) rat model. The series is described as follows: Trial 7: bone turnover biochemical markers (urine DPD, serum OC) by EIA. The settings on record: day 90, OVX rats. Type of series: in vivo, Sprague Dawley rats. As to the method:
as §2
Serum Osteocalcin (OC) concentration was determined by EIA kit (#BT-490, Biomedical Technologies Inc. Stoughtone, USA) following a 1:10 serum dilution.
Urinary Deoxypyridinoline (DPD) concentration was determined by commercial EIA kit (#8007, Qudiel Inc. San Diego, USA) following a 1:50 dilution. DPD levels were normalized to Creatinine levels (#8009, Qudiel Inc. San Diego, USA).

Series [7] deals with ovariectomized (OVX) rat model. The series is described as follows: Trial 7: histomorphometry of un-decalcified proximal tibia sections. Format: in vivo, Sprague Dawley rats. Particulars: for BFR/BS / MAR / MS/BS: dynamic (calcein); for BFR/BS / MAR / MS/BS / BV/TV / Tb. N / Tb. Sp / Tb. Th: OVX rats; for BV/TV / Tb. N / Tb. Sp / Tb. Th: structural, 90 days. As to the method:
as §2
Right tibias were removed from the formaldehyde solution and dehydrated through an ethanol gradient, cleared using xylene (24250521, Bio-Lab Ltd. Haifa, Israel), and infiltrated with 80% methylmethacrylate (MMA; M5599, Sigma Aldrich, Rehovot, Israel)+20% dibutyl phthalate (DBP; 61-5062, Merck Ltd, Hohenbrunn, Germany) for 3 days at 4° C. Specimens were then transferred to MMA+DBP+Benozoyl peroxide (617008, Merck Ltd, Hohenbrunn, Germany) solution for another 6 days infiltration at 4° C. Following infiltration procedure, specimens were embedded in MMA+DBP+2.5% Benozoyl peroxide under a temperature gradient (from 38° C. to 50° C. over a period of 4 days). Mid-sagittal (4 μm) un-decalcified sections from each specimen were cut using a Lecia RM 2025 microtome (Lecia Instruments Ltd, Petach Tikva, Israel) connected to tungsten carbide knifes (Disposable blade; TC65, Rhenium Inc. Bet-Nekufa, Israel). Most sections were stained with McNeal's tetrachrome for structural histomorphometry. The remaining sections were left unstained for dynamic histomorphometry.
Measurement of both structural and dynamic histomorphometry of the proximal tibia metaphisyes were obtained using a semi-automatic analysis system (Bioquant OSTEO, ver. 7.20.10, BIOQUANT Image Analysis Corporation Nashville, USA) which is connected to a microscope (Nikon Optiphot 2, Kingston, England) equipped with fluorescent light source.

As to `O=C([O-])[O-].[Ca+2]` [CCC, crystalline calcium carbonate], in series [1] (4th lumbar vertebra), the SMI is 1.62, the TBPf is 8.5 mm^−1, the “Tb. N” value is listed as 1.75 mm^−1 and the “Tb. Sp” value is recorded as 374 μm. For the same compound, in series [1] (4th lumbar vertebra), the “Tb. Th” value came to 98.4 μm. Besides, in series [1] (distal femur and 4th vertebra, FIG. 5, compared to CCC / third group), the “trabecular bone region in μCT three-dimensional reconstruction” value (“trabecular bone region” for short) is listed as “lowest trabecular bone region”. Also, in series [1] (distal femur metaphysis), the SMI is 1.66, the TBPf is reported as 7.6 mm^−1, the “Tb. N” value is on record as 1.5 mm^−1 and the “Tb. Sp” value was determined as 682 μm. For the same compound, the “Tb. Th” value in series [1] (distal femur metaphysis) is reported as 110 μm. Further, the “retention of the received dose” value in series [2] came to 48.5±1.3%. In series [3], the “AUC∞” value was 109.7 ± 6.4 ^a μg × h/mL, the Cmax was 5.8 ± 0.07 ^a μg/mL and the Tmax is 3.0 ± 0.3 ^a h.
On to `O=C(O)CC(O)(CC(=O)O)C(=O)O` [Citrate, calcium citrate], for which, in series [4] (4th lumbar vertebra), the “Tb. N” value is listed as 1.59^b mm^−1, the “Tb. Sp” value is 262^b μm and the “Tb. Th” value stood at 86.6 μm. Besides, in series [4], the “DA: sham group lower than the OVX group by” value is reported as 22%, the “SMI: sham group lower than the OVX group by” value is listed as 43%, the “TBPf: sham group lower than the OVX group by” value is listed as 91% and the “trabecular bone region” value is on record as “lowest trabecular bone region”. The “trabecular femoral BMD: Sham group higher compared to the OVX group by” value in series [4] came to 63%. In series [4] (distal femur metaphysis), the “Tb. N” value was 2.4^b mm^−1, the “Tb. Sp” value is reported as 226^bd μm and the “Tb. Th” value is 29.1^b μm. In series [4] (micro-CT), the “trabecular bone fraction and its number, Citrate compared with Control” value was “No significant differences”. Moreover, the “mechanical strength properties lower in comparison to Sham (average)” value in series [5] came to 40%. Moreover, in series [6], the “DPD (urine deoxypyridinoline resorption marker)” value is on record as 43.55^e nmol/mmol Cr and the “OC (serum osteocalcin formation marker)” value is given as 15.7^a ng/ml. Moreover, in series [7], the “trabecular bone fraction and condensed trabeculas values lower compared to the Sham (average)” value is on record as 55%; the “trabecular separation higher in comparison to Sham” value is listed as 148%; the “trabecular thickness higher compared to Control” value stood at 13%; the BFR/BS was 0.159^a μm^2/μm/day. In addition, in series [7], the MAR was 1.40 μm/day, the MS/BS is 8.25^a %, the BV/TV was 12.8^b % and the “Tb. N” value is recorded as 2.3^b mm^−1. In addition, in series [7], the “Tb. Sp” value is recorded as 318^b μm and the “Tb. Th” value is 53^b μm. In series [7] (Citrate vs ACC), the “MS/BS lower from the ACC group” value stood at 26% and the “bone formation rate lower from ACC” value amounted to 26%. Moreover, in series [7] (Citrate vs Gast), the “MS/BS lower from the Gast group” value is listed as 29% and the “bone formation rate lower from Gast” value is 28%.
In the case of `O=C([O-])[O-].[Ca+2]` [Control, calcium carbonate], in series [4] (4th lumbar vertebra), the “Tb. N” value is reported as 1.57^b mm^−1, the “Tb. Sp” value was 254^b μm and the “Tb. Th” value came to 87.5 μm. Further, in series [4], the “DA: sham group lower than the OVX group by” value is 22%, the “SMI: sham group lower than the OVX group by” value worked out at 43%, the “TBPf: sham group lower than the OVX group by” value stood at 91% and the “trabecular bone region” value was “lowest trabecular bone region”. Moreover, the “trabecular femoral BMD: Sham group higher compared to the OVX group by” value in series [4] was 64%. Besides, the “BV/TV and Tb.N lower on average in comparison to the Sham” value in series [4] (distal femur) is recorded as 65%. Moreover, in series [4] (distal femur metaphysis), the “Tb. N” value is on record as 2.2^b mm^−1, the “Tb. Sp” value is 248^b μm and the “Tb. Th” value is given as 29.0^b μm. Besides, the “BV/TV and Tb.N lower on average in comparison to the Sham” value in series [4] (vertebra) turned out to be 60%. Moreover, in series [5], the “mechanical strength properties lower in comparison to Sham (average)” value turned out to be 41%. For the same compound, in series [6], the “DPD (urine deoxypyridinoline resorption marker)” value is recorded as 36.65^be nmol/mmol Cr and the “OC (serum osteocalcin formation marker)” value was 14.8^a ng/ml. Moreover, in series [7], the “trabecular bone fraction and condensed trabeculas values lower compared to the Sham (average)” value stood at 55%; the “trabecular separation higher in comparison to Sham” value is reported as 130%; the BFR/BS is given as 0.164^a μm^2/μm/day; the MAR is given as 1.30 μm/day. In series [7], the MS/BS is on record as 8.31^a %, the BV/TV was 12.8^b %, the “Tb. N” value is recorded as 2.5^b mm^−1 and the “Tb. Sp” value is 296^b μm. The “Tb. Th” value in series [7] is on record as 47.1^a μm.
Regarding amorphous calcium carbonate [ACC], in series [3], the “AUC∞” value is listed as 134.5 ± 7.0 ^b μg × h/mL, the Cmax is on record as 8.1 ± 0.8 ^b μg/mL and the Tmax is given as 2.8 ± 0.2 ^a h.
